One assay addresses T1, RMS3/PsD14 (Lathyrus oleraceus, UniProt A0A109QYD3).
T1 sequence (A0A109QYD3 1-267): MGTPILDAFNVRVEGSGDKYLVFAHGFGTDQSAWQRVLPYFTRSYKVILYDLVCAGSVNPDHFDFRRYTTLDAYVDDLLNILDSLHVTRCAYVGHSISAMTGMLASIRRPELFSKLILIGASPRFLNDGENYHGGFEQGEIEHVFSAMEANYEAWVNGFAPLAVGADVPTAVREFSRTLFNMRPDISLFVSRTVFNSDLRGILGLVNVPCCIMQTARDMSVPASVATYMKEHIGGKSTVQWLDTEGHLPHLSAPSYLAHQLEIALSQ
In words: intrinsic tryptophan fluorescence titration (also nanoDSF and UPLC hydrolysis assay). The class given is binding.

In another assay the target is CpD14. In words: intrinsic tryptophan fluorescence titration; UPLC hydrolysis assay; denaturing ESI-MS covalent adduct. The class given is binding, Cryphonectria parasitica. The text has this: intrinsic tryptophan fluorescence titration; UPLC hydrolysis assay; denaturing ESI-MS covalent adduct on CpD14 | The interaction between (+)‐GR24 and CpD14 was confirmed using tryptophan intrinsic fluorescence assay

On to `CC1=C[C@H](O/C=C2/C(=O)O[C@@H]3c4ccccc4C[C@H]23)OC1=O` [(+)-GR24], for which the Kd at RMS3/PsD14 came to 9.33 ± 4.27 µM; on CpD14, 203 ± 41.1 µM.

The record behind these values is publication PMC9306968, “A structural homologue of the plant receptor D14 mediates responses to strigolactones in the fungal phytopathogen Cryphonectria parasitica” (The New Phytologist, 2022).
